Patent US3975366A, “Process for the production of new pepstatins having anti-pepsin activity” (Zaidan Hojin Biseibutsu Kagaku Kenkyu Kai, priority 1971, dated 1976)
In brackets after ≈: the same amount, converted by molar mass. Several values for one entry are separate records, joined by “and”; a condition that tells them apart may be missing. Equal values may be shown once. Where a name gives a salt, the structure may show the parent alone.

Key:
pepsin = pepsin (Sus scrofa, UniProt P00791); test: anti-pepsin activity (50% inhibition of pepsin, ID50); assay type: biochemical; set-up: ID50 (50% inhibition against pepsin): unit not given beside the values; details: for ID50 (50% inhibition against pepsin): amount giving 50% inhibition of pepsin
Chain of pepsin (P00791 60-385): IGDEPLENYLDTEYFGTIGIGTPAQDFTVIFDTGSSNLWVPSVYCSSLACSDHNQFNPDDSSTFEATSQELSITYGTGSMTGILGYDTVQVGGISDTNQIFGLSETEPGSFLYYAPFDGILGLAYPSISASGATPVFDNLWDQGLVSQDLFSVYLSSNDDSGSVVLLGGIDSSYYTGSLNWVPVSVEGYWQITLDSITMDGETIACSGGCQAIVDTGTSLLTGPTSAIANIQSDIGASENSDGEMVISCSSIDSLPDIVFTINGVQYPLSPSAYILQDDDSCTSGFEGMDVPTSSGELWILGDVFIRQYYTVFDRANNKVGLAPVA

physchem = details: methanol, organic solvent or mixture

With `CCCCCC(=O)N[C@H](C(=O)N[C@H](C(=O)NC(CC(C)C)C(O)CC(=O)N[C@@H](C)C(=O)NC(CC(C)C)C(O)CC(=O)OCCC)C(C)C)C(C)C` (stereo partly drawn) [pepstatin B n-propylester] the “ID50 (50% inhibition against pepsin)” value (pepsin) was 0.073 γ.
With `CCCCCC(=O)N[C@H](C(=O)N[C@H](C(=O)NC(CC(C)C)C(O)CC(=O)N[C@@H](C)C(=O)NC(CC(C)C)C(O)CC(=O)OCC)C(C)C)C(C)C` (stereo partly drawn) [pepstatin B ethyl ester] the “ID50 (50% inhibition against pepsin)” value (pepsin) was 0.054 γ.
For `CCCCCC(=O)N[C@H](C(=O)N[C@H](C(=O)NC(CC(C)C)C(O)CC(=O)N[C@@H](C)C(=O)NC(CC(C)C)C(O)CC(=O)OC)C(C)C)C(C)C` (stereo partly drawn) [methyl ester of pepstatin B], the “anti-pepsin activity compared with pepstatin methyl ester” value (pepsin; comparison in words) was “the same as that of pepstatin methyl ester”, the Id50 (pepsin; unit not given, third crystals of Example 3) was 0.05 and the solubility (physchem) was 5 to 10 mg/mL (≈ 7 to 14 mM).
In the case of `CC(=NNc1ccc([N+](=O)[O-])cc1[N+](=O)[O-])C(CC(C)C)NC(=O)C(C)NC(=O)CC(O)C(CC(C)C)NC(=O)C(NC(=O)C(NC(=O)CC(C)C)C(C)C)C(C)C` (stereo not drawn), the “pepsin-inhibitory activity as % of the activity of pepstatin (pepstatin A)” value (pepsin; relative to pepstatin A) is reported as 37%.
In the case of `CCCCCC(=O)N[C@H](C(=O)N[C@H](C(=O)NC(CC(C)C)C(O)CC(=O)N[C@@H](C)C(=O)NC(CC(C)C)C(O)CC(=O)O)C(C)C)C(C)C` (stereo partly drawn) [sodium salt of pepstatin B], the “ID50 (50% inhibition against pepsin)” value (pepsin) is reported as 0.055 γ and 0.05 γ.
In the case of `CCCCCC(=O)N[C@H](C(=O)N[C@H](C(=O)NC(CC(C)C)C(O)CC(=O)N[C@@H](C)C(=O)NC(CC(C)C)C(O)CC(=O)OCCCC)C(C)C)C(C)C` (stereo partly drawn) [new pepstatin B n-butyl ester], the “ID50 (50% inhibition against pepsin)” value (pepsin) is reported as 0.084 γ.
`CCCCCC(=O)N[C@H](C(=O)N[C@H](C(=O)N[C@@H](CC(C)C)[C@@H](O)CC(=O)N[C@@H](C)C(=O)N[C@@H](CC(C)C)[C@@H](O)CC(=O)O)C(C)C)C(C)C` [pepstatin B] showed a solubility (physchem) of 100 mg/mL (≈ 143 mM).
